Measured values from publication PMC6271077, “Synthesis, Anticancer and Antibacterial Activity of Salinomycin N-Benzyl Amides” (Molecules, 2014).

What was measured:
[1] = test system: LoVo/dx; assay: Antiproliferative SRB assay, LoVo/dx; format: cell-based, human
Description: (§1) Four human cancer cell lines and one normal cell line were used to evaluate anticancer activity of SAL and its N-benzyl amides: human acute promyelocytic leukemia (HL-60) and its vincristine resistant subline (HL-60/vinc), human colon adenocarcinoma cell lines sensitive (LoVo) and resistant to doxorubicin (LoVo/dx) as well as also normal murine embryonic fibroblast cell line (BALB/3T3). The BALB/3T3 cell line was purchased from the American Type Culture Collection (ATCC Rockville, MD, USA), HL-60 cell line from European Type Culture Collection by courtesy of Professor Spik and Dr Mazurier (Laboratory of Biological Chemistry USTL, Lille, France) and HL-60/vinc, LoVo and LoVo/dx by courtesy of Prof. E. Borowski (Technical University of Gdańsk, Gdańsk, Poland). All the cell lines are maintained in the Institute of Immunology and Experimental Therapy (IIET), Wrocław, Poland.
(§2) Human leukemia cells were cultured in ISCOVE medium (IIET, Wroclaw, Polond) containing 10% fetal bovine serum and 2 mM L-glutamine (Sigma Aldrich) and 1 µg/100 mL […] for HL-60/vinc (Sigma Aldrich). Human colon adenocarcinoma cell lines were cultured in mixture of OptiMEM and RPMI 1640 (1:1) medium (IIET) supplemented with 5% fetal bovine serum (Thermo Fisher Scientific, Waltham, MA, USA), 2 mM L-glutamine, 1 mM sodium pyruvate (Sigma Aldrich) and 10 µg/100 mL doxorubicin for LoVo/dx (Sigma Aldrich). Murine embryonic fibroblast cells were cultured in Dulbecco medium (Gibco, Darmstadt, Germany) supplemented with 10% fetal bovine serum (Thermo Fisher Scientific) and 2 mM L-glutamine (Sigma Aldrich). All culture media contained antibiotics: 100 U/mL penicillin (Sigma Aldrich) and 100 µg/mL streptomycin (Polfa-Tarchomin, City, Poland). All cell lines were cultured during entire experiment in humid atmosphere at 37 °C and 5% CO2.
(§3) Twenty four hours before adding the tested compounds all cell lines were seeded in 96-well plates (Sarstedt, Nümbrecht, Germany) in appropriate media with 10^4 cells per well. All cell lines were exposed to each tested agent at four different concentrations from the range 100 to 0.1 µg/mL for 72 h. The cells were also exposed to the reference drugs: cisplatin (Accord, London, UK) and doxorubicin hydrochloride (Fluka, St. Louis, MO, USA). Additionally, all cell lines were exposed to DMSO (the solvent used for tested compounds, Sigma Aldrich) at the concentrations corresponding to those in the tested agent dilutions. For adherent cells sulphorodamine B assay was performed and MTT assay for leukemia cells.
(§4) After 72 h of incubation with tested compounds the cells were fixed in situ by gently adding of 50 µL per well of cold 50% trichloroacetic acid TCA (Avantor Performance Materials, City, Poland) and were incubated at 4 °C for 1 h. Then the wells were washed four times with water and air-dried. Next, 50 µL of 0.2% solution of sulphorodamine B (Sigma Aldrich) in 1% acetic acid (Avantor Performance Materials) were added to each well and plates were incubated at room temperature for 0.5 h. After incubation time, unbound dye was removed by washing plates four times with 1% acetic acid, whereas the stain bound to cells was solubilized with 150 µL of 10 mM Tris base (Sigma Aldrich). Absorbance of each solution was read at Synergy H4 photometer (BioTek Instruments, Winooski, VT, USA) at 540 nm wavelength.
(§5) Results are presented as mean IC50 (concentration of the tested compound that inhibits cell proliferation by 50%) ± standard deviation. IC50 values were calculated in Cheburator 1.0.2, Dmitry Nevozhay software for each experiment. Compounds at each concentration were tested in triplicates in single experiment and each experiment was repeated at least three times independently. The IR was defined as the ratio of IC50 for a given compound calculated for resistant cell line to that measured for its parental drug sensitive cell line (Table 4).

[2] = test system: LoVo; assay: Antiproliferative SRB assay, LoVo; format: cell-based, human
Description: as §1, §2, §3, §4, §5

[3] = test system: M. tuberculosis standard H37Rv strain; assay: Tuberculostatic activity, test-tube dilution; format: cell-based; settings: Mycobacterium tuberculosis, read-out: MIC M. tuberculosis Standard H37Rv Strain
[4] = test system: HL-60; assay: Antiproliferative MTT assay, HL-60; format: cell-based, human
Description: as §1, §2, §3
(§6) Proliferation inhibition of leukemia cells by tested compounds was measured by means of MTT assay. Thus, 20 µL of 3-(4,5-dimethylthiazol-2-yl)-2,5-diphenyl tetrazolium bromide solution (Sigma Aldrich) were added to each well and plates were left in cell incubator for 4 h to allow the cells to metabolize yellow MTT to blue formazan. Then, the lysing mixture consisting of 225 mL dimethylformamide, 67.5 g sodium dodecyl sulfate (both from Sigma Aldrich) and 275 mL of distilled water was added in 80 µL volume per well. Plates were incubated for 24 h for the formazan crystals to be released from cells, dissolved and then absorbance of each well was read at Synergy H4 photometer (BioTek Instruments) at 570 nm wavelength.
as §5

[5] = test system: HL-60, HL-60/vinc, LoVo, LoVo/dx; assay: Antiproliferative assays, all four cancer cell lines (range given); format: cell-based; settings: Homo sapiens; range over HL-60, HL-60/vinc, LoVo, LoVo/dx; read-out: IC50 (range over the cancer cell lines)
Description: as §1, §2, §3, §4
Proliferation inhibition of leukemia cells by tested compounds was measured by means of MTT assay. […]

[6] = test system: HL-60/vinc; assay: Antiproliferative MTT assay, HL-60/vinc; format: cell-based, human
Description: as §1, §2, §3, §6, §5

[7] = test system: standard and "wild" strains of M. tuberculosis; assay: Tuberculostatic activity, all M. tuberculosis strains (overall); format: cell-based; settings: Mycobacterium tuberculosis, H37RV, read-out: MIC (over M. tuberculosis strains)
[8] = test system: M. tuberculosis isoniazid-sensitive strain (spec. 192); assay: Tuberculostatic activity, test-tube dilution; format: cell-based; settings: Mycobacterium tuberculosis, read-out: MIC M. tuberculosis Isoniazid-Sensitive Strain

Question: Which IC50 ([1]; Homo sapiens, LoVo/DX, 72 h, read-out: IC50 LoVo/dx) does the source give for `CC[C@H](C(=O)NCc1ccccc1Br)C1CC[C@H](C)C([C@@H](C)[C@H](O)[C@H](C)C(=O)[C@H](CC)C2O[C@]3(C=C[C@@H](O)C4(CC[C@@](C)(C5CC[C@](O)(CC)[C@H](C)O5)O4)O3)[C@H](C)C[C@@H]2C)O1` (some centres unmarked) [Br-o] here?
Answer: 2.87 ± 0.29 µM

Question: What about the “IR LoVo/DX” value ([1]; IR = IC50 LoVo/dx / IC50 LoVo) of the same compound?
Answer: 0.79

Question: And the “SI LoVo/DX” value ([1]; SI = IC50 BALB/3T3 / IC50 LoVo/dx)?
Answer: 2.27

Question: What about the IC50 ([2]; Homo sapiens, LoVo, 72 h, SRB, mean ± SD, read-out: IC50 LoVo) of the same compound?
Answer: 3.64 ± 0.07 µM

Question: And the “SI LoVo” value ([2]; SI = IC50 BALB/3T3 / IC50 LoVo)?
Answer: 1.79

Question: What about the MIC [3] of the same compound?
Answer: > 100 µg/mL

Question: And the IC50 ([4]; Homo sapiens, HL-60, 72 h, MTT, mean ± SD, NA: not active in concentrations used (up to 100 µg/mL), read-out: IC50 HL-60)?
Answer: 3.13 ± 0.71 µM

Question: What about the “SI HL-60” value ([4]; SI = IC50 BALB/3T3 / IC50 HL-60) of the same compound?
Answer: 2.08

Question: And the IC50 [5]?
Answer: 2.32 to 6.84 µM

Question: What about the IC50 ([6]; Homo sapiens, HL60/vinc, 72 h, read-out: IC50 HL-60/vinc) of the same compound?
Answer: 4.8 ± 1.48 µM

Question: What about the “IR HL-60/vinc” value ([6]; IR = IC50 HL-60/vinc / IC50 HL-60) of the same compound?
Answer: 1.53

Question: What about the “SI HL-60/vinc” value ([6]; SI = IC50 BALB/3T3 / IC50 HL-60/vinc) of the same compound?
Answer: 1.36

Question: And the MIC [7]?
Answer: > 100 µg/mL

Question: What about the MIC [8] of the same compound?
Answer: > 100 µg/mL
